In PubChem BioAssay (NCI):
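A five-concentration, 48-hour dose response in 96-well plates underlies each endpoint, interpolated linearly between surrounding concentrations. TGI: concentration producing complete growth inhibition.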

Assays:
Test in all cases: NCI tumour cell line growth inhibition, 48 h
A498 renal = tested on: A498 renal
OVCAR-3 ovarian = tested on: OVCAR-3 ovarian
COLO 205 colon = tested on: COLO 205 colon
SF-295 CNS = tested on: SF-295 CNS
MALME-3M melanoma = tested on: MALME-3M melanoma
MCF7 breast = tested on: MCF7 breast
BT-549 breast = tested on: BT-549 breast
SK-MEL-5 melanoma = tested on: SK-MEL-5 melanoma
SK-MEL-2 melanoma = tested on: SK-MEL-2 melanoma
MOLT-4 leukemia = tested on: MOLT-4 leukemia
NCI-H460 lung = tested on: NCI-H460 lung
SW-620 colon = tested on: SW-620 colon
PC-3 prostate = tested on: PC-3 prostate
SF-268 CNS = tested on: SF-268 CNS
UO-31 renal = tested on: UO-31 renal
A549 NSCLC = tested on: A549 NSCLC
SNB-19 CNS = tested on: SNB-19 CNS
NCI/ADR-RES ovarian = tested on: NCI/ADR-RES ovarian
RXF 393 renal = tested on: RXF 393 renal
RPMI-8226 leukemia = tested on: RPMI-8226 leukemia

| Structure (SMILES) | TGI (A498 renal) | TGI (OVCAR-3 ovarian) | TGI (COLO 205 colon) | TGI (SF-295 CNS) | TGI (MALME-3M melanoma) | TGI (MCF7 breast) | TGI (BT-549 breast) | TGI (SK-MEL-5 melanoma) | TGI (SK-MEL-2 melanoma) | TGI (MOLT-4 leukemia) | TGI (NCI-H460 lung) | TGI (SW-620 colon) | TGI (PC-3 prostate) | TGI (SF-268 CNS) | TGI (UO-31 renal) | TGI (A549 NSCLC) | TGI (SNB-19 CNS) | TGI (NCI/ADR-RES ovarian) | TGI (RXF 393 renal) | TGI (RPMI-8226 leukemia) |
| --- | --- | --- | --- | --- | --- | --- | --- | --- | --- | --- | --- | --- | --- | --- | --- | --- | --- | --- | --- | --- |
| C[N+](C)(C)CC(=O)N/N=C(/CC1OC(=O)c2ccccc21)c1ccccc1O (stereo not drawn) | 77.1 µM | > 100 µM | > 100 µM | > 100 µM | > 100 µM | > 100 µM | 95.7 µM | > 100 µM | > 100 µM | 42.4 µM | 70.9 µM | > 100 µM | > 100 µM | > 100 µM | 56.1 µM | > 100 µM | > 100 µM | 55.4 µM | 86.4 µM | 22.1 µM |
| CCO/C(O)=C(/C(=N)N1CCCC1)C(=O)Nc1ccc(F)cc1 | > 100 µM | > 100 µM | > 100 µM | > 100 µM | > 100 µM | > 100 µM | > 100 µM |  | > 100 µM | > 100 µM | > 100 µM | > 100 µM | > 100 µM | > 100 µM |  | > 100 µM | > 100 µM | > 100 µM | > 100 µM | > 100 µM |
| C[S+](C)CC(=O)c1ccc2c(c1)Sc1ccccc1O2 | 26.9 µM | 7.58 µM |  | 16 µM | 12 µM | 7.28 µM | 6.17 µM | 2.92 µM | 10 µM | > 94.4 µM | 16.2 µM | > 43.2 µM | 4.03 µM | 14.6 µM | 12 µM | 18.1 µM | 17.1 µM | > 39.7 µM | 9.23 µM | > 39.2 µM |
| CC1(C)CCC[C@]2(C)[C@@H]1CC[C@@]13O[C@@H]1C1=C(CO)C(=O)OC1=C[C@@H]23 | 76.8 µM |  | 30.6 µM | 44.9 µM | 23.7 µM | > 100 µM | 51 µM | 29.5 µM | 53.8 µM | > 100 µM | 67.4 µM | 37.5 µM | 57.4 µM | 54.7 µM | 26 µM | 24.4 µM | 28.7 µM | 37.7 µM | 36.4 µM | 62.8 µM |
| C[C@H](CCC(=O)O)[C@H]1CC[C@H]2[C@@H]3[C@H](O)C[C@@H]4C[C@H](O)CC[C@]4(C)[C@H]3CC[C@]12C | > 100 µM |  | 45.7 µM |  | > 100 µM | > 100 µM | > 100 µM |  | 53.5 µM | 62 µM | 92 µM | > 100 µM | > 100 µM | > 100 µM | 58.5 µM | > 100 µM | > 100 µM | > 100 µM | > 100 µM | 54.8 µM |
| CC(C)(CC#N)c1cc(CC(C)(C)c2cc(CC(C)(C)c3cc(C(C)(C)C4(C)OCCO4)no3)no2)no1 | > 100 µM | > 100 µM | > 100 µM | > 100 µM | > 100 µM | > 100 µM | > 100 µM | > 100 µM | > 100 µM | > 100 µM |  | > 100 µM | > 100 µM | > 100 µM | > 100 µM | > 100 µM | 77.7 µM | > 100 µM | 41.3 µM | > 100 µM |
| CN(C)CC1(Cc2ccccc2)CCC(Cc2ccccc2)C1=O (stereo not drawn) | 29.8 µM | 16.2 µM | 19.4 µM | 31.2 µM | 27.2 µM | 24.9 µM | 25.5 µM | 27.4 µM | 27.3 µM | 9.11 µM | 30.6 µM | 11.1 µM | 22.9 µM | 22.6 µM | 30.7 µM | 33.5 µM | 29.7 µM | 40 µM | 27.5 µM | 6.84 µM |
| C#C[C@]1(O)CC[C@H]2[C@@H]3CCC4=C/C(=N\OCCN(CC)CC)CC[C@]4(C)[C@H]3CC[C@@]21C | 28.9 µM | 8.91 µM | 11.5 µM | 5.21 µM | 10.2 µM | 21.3 µM | 31.5 µM | 7.37 µM | 11.3 µM | 1.04 µM | 21 µM | > 29.1 µM | 16.1 µM | 10.8 µM | 15.8 µM | > 41.4 µM | 18.5 µM | 8.5 µM | 7.35 µM | 5.83 µM |
| Cc1ccc(CC(Cc2ccc(C)cc2C(=O)O)C(=O)O)cc1 (stereo not drawn) | > 100 µM | > 100 µM | > 100 µM | > 100 µM | > 100 µM | > 100 µM | > 100 µM | > 100 µM | > 100 µM | > 100 µM | > 100 µM | > 100 µM | > 100 µM | > 100 µM | > 100 µM | > 100 µM | > 100 µM | > 100 µM | > 100 µM | > 100 µM |
| CC1(C)CCCOc2cccc(c2)OCCCC(C)(C)C1=O | > 100 µM | 69.1 µM | > 100 µM |  | 70.3 µM | > 100 µM | 89.3 µM | 35.8 µM | 54.9 µM | 37.1 µM | > 100 µM | > 100 µM | > 100 µM | > 100 µM | > 100 µM | > 100 µM | > 100 µM | > 100 µM | 48.5 µM | > 100 µM |
| Clc1ccc(C=NC23CC4CC(CC(C4)C2)C3)cc1Cl | > 10 µM | > 10 µM | > 10 µM | > 10 µM | > 10 µM | > 10 µM | > 10 µM | > 10 µM | > 10 µM | > 10 µM | > 10 µM | > 10 µM | > 10 µM | > 10 µM |  | > 10 µM | > 10 µM | > 10 µM | > 10 µM | > 10 µM |
| Cn1c2ccccc2c2nc3ccccc3c(Cl)c21 | > 100 µM | > 100 µM | > 100 µM | > 100 µM | > 100 µM | > 100 µM | > 100 µM |  | > 100 µM | > 100 µM | > 100 µM | > 100 µM | > 100 µM | > 100 µM |  | > 100 µM | > 100 µM | > 100 µM | > 100 µM | > 100 µM |
